From patent publication US20120316199A1, “COMPOSITIONS AND METHODS FOR TREATING, CONTROLLING, REDUCING, OR AMELIORATING INFLAMMATORY PAIN” (priority 2011, published 2012) come the findings set out here.

Where “and” joins values, the source holds several entries; their conditions need not be identical. Identical values can stand only once.

Series [1] concerns ocular signs. In words: Clinical study after cataract surgery: ocular signs (biomicroscopy). The series is classed as in vivo, human. From the text:
There were 8 treatment groups in this study, consisting of three drug doses, vehicle and three dosing frequencies (see also Table 4-1): • Group A: 1% BOL-303242-X ophthalmic suspension, two times per day (BID) • Group B: 2% BOL-303242-X ophthalmic suspension, one time per day (QD) • Group C: 2% BOL-303242-X ophthalmic suspension, BID • Group D: 2% BOL-303242-X ophthalmic suspension, four times per day (QID) • Group E: 3% BOL-303242-X ophthalmic suspension, QD • Group F: 3% BOL-303242-X ophthalmic suspension, BID • Group G: 3% BOL-303242-X ophthalmic suspension, QID • Group H: Vehicle for BOL-303242-X (divided equally into QID, BID, and QD)
Visit 1 (screening), Visit 2 (cataract surgery), Visit 3 (postoperative Day 1), Visit 4 (postoperative Day 3±1 day), Visit 5 (postoperative Day 8±1 day), Visit 6 (postoperative Day 15±1 day), Visit 7 (postoperative Day 18±1 day). Subject assessments included adverse events (AEs), concomitant medications, ocular symptoms, pinholed Snellen visual acuity (VA), intraocular pressure (IOP), ocular signs (biomicroscopy), fundoscopy, and study drug drop sensation. In addition, subject diaries were collected and reviewed for accuracy and treatment compliance.
Safety: The safety endpoints in this study were: incidence of AEs, change in IOP, ocular signs (biomicroscopy), Snellen VA, fundoscopy, study drug drop sensation assessment.

Series [2] concerns New Zealand White rabbits. Nature of the series: Mortality/morbidity in New Zealand White rabbits, topical dosing four times daily. The series is classed as in vivo. The note with it: for Mortality (rabbits that died or were euthanized between Days 11 and 33): right eye four times daily, Days 1-31. As for the experimental part: On Days 1-31, animals received daily topical doses of the appropriate test article into the right eye. Animals were dosed four times per day, with doses administered 2 hours apart. Doses were administered using a calibrated 50-μL pipette. The eyelids were held close for 10 seconds immediately following dosing. The time of each dose administration was recorded.
Animals determined to be moribund were euthanized with an intravenous injection of commercial euthanasia solution.

Series [3] deals with pupillary diameter. Nature of the series: Pupillary diameter measurement, rabbit paracentesis model. The series is classed as in vivo, Rabbit (New Zealand). The note with it: for Pupillary diameter T2: −5 min: 5 min before the first paracentesis; for Pupillary diameter T2: −5 min / Pupillary diameter T3: +115 min / Pupillary diameter T1: −180 min: raw data per eye, listed as BOL; for Pupillary diameter T3: +115 min: 5 min before the second paracentesis; for Pupillary diameter T1: −180 min: basal; for Mean (mm) Δ(T3 − T1) of pupillary diameter: group mean, n=8 eyes.

The mark [4] stands for this setting: Group D, 1 mg/g (0.05 mg/dose) 4 x daily, individual rabbit.

Consider `Cc1ccc2c(NC[C@](O)(CC(C)(C)c3cc(F)cc4c3OCC4)C(F)(F)F)cccc2n1` [BOL-303242-X, mapracorat], for which the “proportions of subjects with increases in scores for anterior vitreous haze, corneal edema, corneal staining, eyelid erythema, hyphema, and posterior synechiae” value in series [1] (any dose groups at any postoperative visits) is “No statistically significant differences”. Further, in series [1] (certain dose groups at Visits 4, 5, 7 as listed), the “proportions of subjects with increases in scores for AC cells, AC flare, bulbar conjunctival injection, chemosis, ciliary flush, palpebral conjunctival injection” value is reported as “statistically significantly lower proportions of subjects with increases in scores”. For the same compound, the “Mortality (rabbits that died or were euthanized between Days 11 and 33)” value in series [2] (0.05 mg/dose (0.1% dexamethasone suspension or 1 mg/g BOL-303242-X)) is recorded as “one of ten”; in series [2] (5 mg/g suspension ([…])) it was “two of ten”; in series [2] (10 mg/g suspension (0.5 mg/dose)), “one of ten”. Moreover, in series [2] (10 mg/g (0.5 mg/dose), one surviving rabbit (Group B, No. 3048)), the “Morbidity noted in a surviving rabbit” value is on record as “diarrhea on Day 18”. In addition, the “Mortality rate per dose level” value in series [2] (0.05, 0.25, or 0.5 mg/dose four times daily up to 31 days) is recorded as 1-2 deaths per 10 rabbits. Besides, the “Day of Death (day euthanized or found dead)” value was found to be 11 in series [2] (Group B, 10 mg/g (0.5 mg/dose) 4 x daily, individual rabbit) and 29 in series [2] (setting [4]). The “Recorded Notes on death” value in series [2] (setting [4]) was “Found dead”. Moreover, the “Pupillary diameter T2: −5 min” value in series [3] (0.1% formulation) was 6.5 mm and 7.0 mm and 7.5 mm; in series [3] (0.5% formulation), 8.0 mm and 7.0 mm and 7.5 mm; in series [3] (1% formulation), 6.0 mm and 6.5 mm and 7.0 mm. The “Pupillary diameter T3: +115 min” value in series [3] (0.1% formulation) is 5.0 mm and 6.0 mm and 6.5 mm and 5.5 mm; in series [3] (0.5% formulation), 6.5 mm and 6.0 mm and 7.0 mm; in series [3] (1% formulation), 5.5 mm and 5.0 mm and 6.0 mm. The “Pupillary diameter T1: −180 min” value in series [3] (0.1% formulation) is 6.5 mm and 7.0 mm and 7.5 mm; in series [3] (0.5% formulation) it was 8.0 mm and 7.0 mm and 7.5 mm; in series [3] (1% formulation), 6.0 mm and 6.5 mm. The entries for the “Mean (mm) Δ(T3 − T1) of pupillary diameter” value in series [3] (0.1% formulation), in series [3] (0.5% formulation) and in series [3] (1% formulation) were −1.1 mm, −1.0 mm and −0.9 mm, respectively.
